# Measurements: patent US10294202B2, “Pyrrolidinones as herbicides” (FMC Corporation, priority 2013, dated 2019)
# Key:
# sedge, umbrella = experiment: Test B flooded paddy test; type: in vivo, Cyperus difformis; conditions: 1000 g ai/ha, Flood; scale of 0 to 100 where 0 is no effect and 100 is complete control
# How it was run: (§1)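 Scoring: visual, compared with untreated controls, 0 = no effect through 100 = complete control, taken 13 to 15 days after treatment in the greenhouse. Compounds had been added to paddy water over soil flooded 3 cm deep at the plants' 2-leaf stage.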
# ducksalad = experiment: Test B flooded paddy test; type: in vivo, Heteranthera limosa; conditions: 1000 g ai/ha, Flood; scale of 0 to 100 where 0 is no effect and 100 is complete control
# How it was run: as §1
# wheat = experiment: Test A pre-/postemergence herbicide test; type: in vivo, Triticum aestivum
# How it was run: (§2)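 Approximately 10 days after treatment in the greenhouse, plants were compared with untreated controls and given a 0–100 visual injury rating. Applications: preemergence directed soil spray; postemergence on 2–10 cm plants at the one- to two-leaf stage.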
# velvetleaf = experiment: Test A pre-/postemergence herbicide test; type: in vivo, Abutilon theophrasti
# How it was run: as §2
# corn = experiment: Test A pre-/postemergence herbicide test; type: in vivo, Zea mays
# How it was run: as §2
# barnyardgrass [1] = experiment: Test A pre-/postemergence herbicide test; type: in vivo, Echinochloa crus-galli
# How it was run: as §2
# barnyardgrass [2] = experiment: Test B flooded paddy test; type: in vivo, Echinochloa crus-galli; conditions: 1000 g ai/ha, Flood; scale of 0 to 100 where 0 is no effect and 100 is complete control
# How it was run: as §1
# morningglory = experiment: Test A pre-/postemergence herbicide test; type: in vivo, Ipomoea spp.
# How it was run: as §2
# rice = experiment: Test B flooded paddy test; type: in vivo, Oryza sativa; conditions: 1000 g ai/ha, Flood; scale of 0 to 100 where 0 is no effect and 100 is complete control
# How it was run: as §1
# crabgrass, large = experiment: Test A pre-/postemergence herbicide test; type: in vivo, Digitaria sanguinalis
# How it was run: as §2
# giant foxtail = experiment: Test A pre-/postemergence herbicide test; type: in vivo, Setaria faberii
# How it was run: as §2
# pigweed = experiment: Test A pre-/postemergence herbicide test; type: in vivo, Amaranthus retroflexus
# How it was run: as §2
# [3] = Postemergence, 125 g ai/ha, 0 to 100 scale, 0 is no effect, 100 is complete control
# [4] = Postemergence, 500 g ai/ha, 0 to 100 scale (0 no effect, 100 complete control)
# [5] = Preemergence, 125 g ai/ha, 0 to 100 scale where 0 is no effect and 100 is complete control
# [6] = preemergence, 500 g ai/ha, 0 to 100 scale, 0 is no effect and 100 is complete control
Compound,"Plant response rating, Sedge, Umbrella (sedge, umbrella)","Plant response rating, Ducksalad (ducksalad)","Plant response rating, Wheat (wheat; [3])","Plant response rating, Wheat (wheat; [4])","Plant response rating, Wheat (wheat; [5])","Plant response rating, Wheat (wheat; [6])","Plant response rating, Velvetleaf (velvetleaf; [3])","Plant response rating, Velvetleaf (velvetleaf; [4])","Plant response rating, Velvetleaf (velvetleaf; [5])","Plant response rating, Velvetleaf (velvetleaf; [6])","Plant response rating, Corn (corn; [3])","Plant response rating, Corn (corn; [4])","Plant response rating, Corn (corn; [5])","Plant response rating, Corn (corn; [6])","Plant response rating, Barnyardgrass (barnyardgrass [1]; [3])","Plant response rating, Barnyardgrass (barnyardgrass [1]; [4])","Plant response rating, Barnyardgrass (barnyardgrass [1]; [5])","Plant response rating, Barnyardgrass (barnyardgrass [1]; [6])","Plant response rating, Barnyardgrass (barnyardgrass [2])","Plant response rating, Morningglory (morningglory; [3])",further results
O=C1NCC(c2ccc(C(F)(F)F)c(F)c2)C1C(=O)Nc1ccccc1C(F)(F)F (racemic) [Compound 248],0,95,0,0,0,0,0,0,0,0,0,20,0,0,20,50,30,80,55,0,"Plant response rating, Morningglory (morningglory; [4]): 0; Plant response rating, Morningglory (morningglory; [5]): 0; Plant response rating, Morningglory (morningglory; [6]): 0; Plant response rating, Rice (rice): 0; Plant response rating, Crabgrass, Large (crabgrass, large; [3]): 50; Plant response rating, Crabgrass, Large (crabgrass, large; [4]): 70; Plant response rating, Crabgrass, Large (crabgrass, large; [5]): 90; Plant response rating, Crabgrass, Large (crabgrass, large; [6]): 90; Plant response rating, Foxtail, Giant (giant foxtail; [3]): 30; Plant response rating, Foxtail, Giant (giant foxtail; [4]): 50; Plant response rating, Foxtail, Giant (giant foxtail; [5]): 80; Plant response rating, Foxtail, Giant (giant foxtail; [6]): 90; Plant response rating, Pigweed (pigweed; [3]): 0; Plant response rating, Pigweed (pigweed; [4]): 0; Plant response rating, Pigweed (pigweed; [5]): 0; Plant response rating, Pigweed (pigweed; [6]): 0"
O=C1NCC(c2ccc(C(F)(F)F)c(Cl)c2)C1C(=O)Nc1ccccc1F (racemic) [Compound 249],40,85,0,0,0,0,0,0,0,0,0,0,0,0,30,50,50,80,55,0,"Plant response rating, Morningglory (morningglory; [4]): 0; Plant response rating, Morningglory (morningglory; [5]): 0; Plant response rating, Morningglory (morningglory; [6]): 0; Plant response rating, Rice (rice): 15; Plant response rating, Crabgrass, Large (crabgrass, large; [3]): 0; Plant response rating, Crabgrass, Large (crabgrass, large; [4]): 40; Plant response rating, Crabgrass, Large (crabgrass, large; [5]): 80; Plant response rating, Crabgrass, Large (crabgrass, large; [6]): 90; Plant response rating, Foxtail, Giant (giant foxtail; [3]): 20; Plant response rating, Foxtail, Giant (giant foxtail; [4]): 40; Plant response rating, Foxtail, Giant (giant foxtail; [5]): 50; Plant response rating, Foxtail, Giant (giant foxtail; [6]): 90; Plant response rating, Pigweed (pigweed; [3]): 0; Plant response rating, Pigweed (pigweed; [4]): 0; Plant response rating, Pigweed (pigweed; [5]): 0; Plant response rating, Pigweed (pigweed; [6]): 0"
O=C1NCC(c2ccc(C(F)(F)F)c(Cl)c2)C1C(=O)Nc1cccc(F)c1F (racemic) [Compound 250],0,80,0,0,0,0,0,0,0,0,0,0,0,0,30,50,20,80,0,0,"Plant response rating, Morningglory (morningglory; [4]): 0; Plant response rating, Morningglory (morningglory; [5]): 0; Plant response rating, Morningglory (morningglory; [6]): 0; Plant response rating, Rice (rice): 0; Plant response rating, Crabgrass, Large (crabgrass, large; [3]): 0; Plant response rating, Crabgrass, Large (crabgrass, large; [4]): 40; Plant response rating, Crabgrass, Large (crabgrass, large; [5]): 80; Plant response rating, Crabgrass, Large (crabgrass, large; [6]): 90; Plant response rating, Foxtail, Giant (giant foxtail; [3]): 30; Plant response rating, Foxtail, Giant (giant foxtail; [4]): 50; Plant response rating, Foxtail, Giant (giant foxtail; [5]): 50; Plant response rating, Foxtail, Giant (giant foxtail; [6]): 80; Plant response rating, Pigweed (pigweed; [3]): 0; Plant response rating, Pigweed (pigweed; [4]): 0; Plant response rating, Pigweed (pigweed; [5]): 0; Plant response rating, Pigweed (pigweed; [6]): 0"
O=C1NCC(c2ccc(C(F)(F)F)c(Cl)c2)C1C(=O)Nc1ccccc1C(F)(F)F (racemic) [Compound 251],0,90,0,0,0,0,0,0,0,0,0,0,0,0,0,30,20,80,45,0,"Plant response rating, Morningglory (morningglory; [4]): 0; Plant response rating, Morningglory (morningglory; [5]): 0; Plant response rating, Morningglory (morningglory; [6]): 0; Plant response rating, Rice (rice): 0; Plant response rating, Crabgrass, Large (crabgrass, large; [3]): 0; Plant response rating, Crabgrass, Large (crabgrass, large; [4]): 30; Plant response rating, Crabgrass, Large (crabgrass, large; [5]): 80; Plant response rating, Crabgrass, Large (crabgrass, large; [6]): 90; Plant response rating, Foxtail, Giant (giant foxtail; [3]): 0; Plant response rating, Foxtail, Giant (giant foxtail; [4]): 20; Plant response rating, Foxtail, Giant (giant foxtail; [5]): 40; Plant response rating, Foxtail, Giant (giant foxtail; [6]): 80; Plant response rating, Pigweed (pigweed; [3]): 0; Plant response rating, Pigweed (pigweed; [4]): 20; Plant response rating, Pigweed (pigweed; [5]): 0; Plant response rating, Pigweed (pigweed; [6]): 30"
